Experimental data taken from patent publication US9586951B2 (FUJIFILM Corporation, priority 2013, dated 2017).

Target: T1, ATM (Homo sapiens, UniProt Q13315)
T1 construct: detecting phosphorylation of Chk2 in a human non-small cell lung cancer cell line NCI-H460 (ATCC company); host or cells: NCI-H460 human non-small cell lung cancer cells
Test: ATM inhibition test (phosphorylation of Chk2 generated by ionizing radiation, AlphaScreen SureFire)
Format: cell-based
Conditions: phosphorylated Chk2 in NCI-H460 cells, ionizing radiation 8Gy, 1 hour after test compound treatment; read-out: ATM inhibitory activity
Procedure, shortened: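 In NCI-H460 cells, radiation-triggered Chk2 phosphorylation (8Gy, 1 h) is detected by AlphaScreen SureFire following 1 h compound exposure.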

T1 sequence (Q13315 whole entry): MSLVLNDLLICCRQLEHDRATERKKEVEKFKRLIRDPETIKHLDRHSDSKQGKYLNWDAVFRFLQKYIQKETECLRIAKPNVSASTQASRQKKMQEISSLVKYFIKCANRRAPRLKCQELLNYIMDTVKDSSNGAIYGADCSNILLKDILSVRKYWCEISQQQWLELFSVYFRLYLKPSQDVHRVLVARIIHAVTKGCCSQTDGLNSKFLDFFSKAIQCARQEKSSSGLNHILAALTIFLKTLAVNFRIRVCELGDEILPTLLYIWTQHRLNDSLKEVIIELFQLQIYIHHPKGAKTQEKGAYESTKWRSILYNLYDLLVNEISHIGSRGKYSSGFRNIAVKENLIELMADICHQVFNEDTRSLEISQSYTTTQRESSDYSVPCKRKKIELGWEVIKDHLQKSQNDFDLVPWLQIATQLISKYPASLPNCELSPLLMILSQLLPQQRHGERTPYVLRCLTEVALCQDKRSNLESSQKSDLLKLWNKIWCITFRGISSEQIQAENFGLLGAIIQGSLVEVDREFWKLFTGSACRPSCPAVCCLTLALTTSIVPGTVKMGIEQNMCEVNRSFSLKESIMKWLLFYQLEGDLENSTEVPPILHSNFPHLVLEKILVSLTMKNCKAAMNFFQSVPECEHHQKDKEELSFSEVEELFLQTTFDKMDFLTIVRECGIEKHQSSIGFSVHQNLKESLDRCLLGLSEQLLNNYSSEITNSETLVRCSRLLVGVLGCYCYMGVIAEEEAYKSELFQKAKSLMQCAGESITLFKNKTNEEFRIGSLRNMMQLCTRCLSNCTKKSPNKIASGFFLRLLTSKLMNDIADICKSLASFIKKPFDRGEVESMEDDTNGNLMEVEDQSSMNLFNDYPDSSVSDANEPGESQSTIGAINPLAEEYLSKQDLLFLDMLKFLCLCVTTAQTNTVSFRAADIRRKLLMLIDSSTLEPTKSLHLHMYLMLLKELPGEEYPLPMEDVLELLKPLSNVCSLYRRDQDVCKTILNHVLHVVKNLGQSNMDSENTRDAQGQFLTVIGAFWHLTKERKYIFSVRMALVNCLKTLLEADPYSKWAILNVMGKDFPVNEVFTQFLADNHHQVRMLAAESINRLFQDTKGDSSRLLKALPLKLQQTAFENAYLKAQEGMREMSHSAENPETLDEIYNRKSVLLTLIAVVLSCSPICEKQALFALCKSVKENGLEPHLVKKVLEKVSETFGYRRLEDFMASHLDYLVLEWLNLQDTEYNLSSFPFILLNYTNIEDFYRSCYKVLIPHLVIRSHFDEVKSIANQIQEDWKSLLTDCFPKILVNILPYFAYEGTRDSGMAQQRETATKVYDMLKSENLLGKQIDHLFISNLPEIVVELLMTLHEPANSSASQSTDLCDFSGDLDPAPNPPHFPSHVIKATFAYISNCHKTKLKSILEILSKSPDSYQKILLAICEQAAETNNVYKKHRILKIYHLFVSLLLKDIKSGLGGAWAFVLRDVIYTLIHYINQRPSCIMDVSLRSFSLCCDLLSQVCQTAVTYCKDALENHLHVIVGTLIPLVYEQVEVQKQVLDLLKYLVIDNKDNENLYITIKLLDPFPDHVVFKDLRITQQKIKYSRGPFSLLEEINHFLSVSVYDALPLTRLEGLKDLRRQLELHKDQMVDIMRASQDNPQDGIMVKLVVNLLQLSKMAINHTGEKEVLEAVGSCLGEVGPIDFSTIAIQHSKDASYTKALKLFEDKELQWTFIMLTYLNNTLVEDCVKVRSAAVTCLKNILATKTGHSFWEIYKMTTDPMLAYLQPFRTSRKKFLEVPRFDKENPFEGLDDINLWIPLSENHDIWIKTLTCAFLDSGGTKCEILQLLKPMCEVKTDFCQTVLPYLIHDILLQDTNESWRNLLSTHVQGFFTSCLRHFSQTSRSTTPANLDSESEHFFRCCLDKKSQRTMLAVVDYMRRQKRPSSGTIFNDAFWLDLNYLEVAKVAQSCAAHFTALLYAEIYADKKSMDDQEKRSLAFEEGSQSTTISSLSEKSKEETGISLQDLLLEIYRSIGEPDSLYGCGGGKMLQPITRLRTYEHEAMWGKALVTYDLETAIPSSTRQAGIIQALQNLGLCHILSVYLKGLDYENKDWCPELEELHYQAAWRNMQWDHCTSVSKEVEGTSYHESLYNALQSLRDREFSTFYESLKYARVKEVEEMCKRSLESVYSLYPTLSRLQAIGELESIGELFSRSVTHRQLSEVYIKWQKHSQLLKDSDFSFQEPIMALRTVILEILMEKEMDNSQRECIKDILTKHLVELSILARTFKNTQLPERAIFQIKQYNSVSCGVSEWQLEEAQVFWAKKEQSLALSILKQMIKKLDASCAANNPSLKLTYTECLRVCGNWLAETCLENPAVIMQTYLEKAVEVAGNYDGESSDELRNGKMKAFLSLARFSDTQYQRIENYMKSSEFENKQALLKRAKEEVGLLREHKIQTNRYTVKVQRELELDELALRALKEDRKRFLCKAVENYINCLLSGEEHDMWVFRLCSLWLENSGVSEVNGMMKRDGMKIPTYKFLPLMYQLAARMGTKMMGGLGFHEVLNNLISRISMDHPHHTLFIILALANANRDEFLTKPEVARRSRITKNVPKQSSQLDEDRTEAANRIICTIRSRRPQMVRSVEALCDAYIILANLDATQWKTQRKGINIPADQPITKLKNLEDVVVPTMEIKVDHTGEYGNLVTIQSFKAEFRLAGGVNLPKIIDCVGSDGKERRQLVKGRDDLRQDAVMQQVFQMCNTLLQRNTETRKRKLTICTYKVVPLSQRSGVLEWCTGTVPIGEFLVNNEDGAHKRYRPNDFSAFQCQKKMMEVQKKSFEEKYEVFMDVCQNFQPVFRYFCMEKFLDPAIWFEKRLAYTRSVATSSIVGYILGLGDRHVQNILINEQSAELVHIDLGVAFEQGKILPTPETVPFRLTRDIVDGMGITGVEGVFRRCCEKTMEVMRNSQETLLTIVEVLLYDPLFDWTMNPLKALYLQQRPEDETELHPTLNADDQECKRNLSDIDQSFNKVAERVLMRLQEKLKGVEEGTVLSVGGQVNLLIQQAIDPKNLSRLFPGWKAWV

Row | SMILES | IC50
1 | O=c1cc(N2CCOCC2)cc(-c2cccc3c2Sc2ccc(NCCN4CCC(O)CC4)cc2S3)[nH]1 [Example 1-10-8, 6-(7-((2-(4-Hydroxypiperidin-1-yl)ethyl)amino)thianthren-1-yl)-4-morpholino pyridin-2(1H)-one] | 500 to 2000 nM
2 | O=C(CNc1ccc2c(c1)Sc1cccc(-c3cc(N4CCOCC4)cc(=O)[nH]3)c1S2)N1CCCCC1 [Example 1-18-2] | 100 to 500 nM
3 | CC(Nc1ccc2c(c1)Cc1cccc(-c3cc(N4CCOCC4)cc(=O)[nH]3)c1O2)c1cnccn1 (centres unmarked) [Example 2-14-77, 4-Morpholino-6-(7-((1-(pyrazin-2-yl)ethyl)amino)-9H-xanthen-4-yl)pyridin-2 (1H)-one] | 100 to 500 nM
4 | CNc1ccc(CN2CCC(Nc3ccc4c(c3)Cc3cccc(-c5cc(N6CCOCC6)cc(=O)[nH]5)c3O4)CC2)cn1 [Example 2-28-8, 6-(7-((1-((6-(Methylamino)pyridin-3-yl)methyl)piperidin-4-yl)amino)-9H-xanthen-4-yl)-4-morpholino pyridin-2(1H)-one] | 100 to 500 nM
5 | CC(C(=O)Nc1ccc2c(c1)Sc1cccc(-c3cc(N4CCOCC4)cc(=O)[nH]3)c1S2)N1CCOCC1 (centres unmarked) [Example 1-8, 2-Morpholino-N-(6-(4-morpholino-6-oxo-1,6-dihydropyridin-2-yl)thianthren-2-yl)propanamide] | 500 to 2000 nM
6 | COc1nccc(C(C)Nc2ccc3c(c2)Sc2cccc(-c4cc(N5CCOCC5)cc(=O)[nH]4)c2S3)n1 (centres unmarked) [Example 1-12-88, 6-(7-((1-(2-Methoxypyrimidin-4-yl)ethyl)amino)thianthren-1-yl)-4-morpholino pyridin-2(1H)-one] | 100 to 500 nM
7 | O=c1cc(N2CCOCC2)cc(-c2cccc3c2Sc2ccc(NCCc4cccnc4)cc2S3)[nH]1 [Example 1-5, 4-morpholino-6-(7-((2-(pyridin-3-yl)ethyl)amino)thianthren-1-yl)pyridin-2(1H)-one] | 100 to 500 nM
8 | O=c1cc(N2CCOCC2)cc(-c2cccc3c2Sc2ccc(NC4CCCCC4N4CCOCC4)cc2S3)[nH]1 (centres unmarked) [Example 1-16-2, 4-Morpholino-6-(7-((2-morpholinocyclohexyl)amino)thianthren-1-yl)pyridin-2(1H)-one] | 100 to 500 nM
9 | CCOCC(Nc1ccc2c(c1)Sc1cccc(-c3cc(N4CCOCC4)cc(=O)[nH]3)c1S2)c1ccc(C)cn1 (centres unmarked) [Example 1-12-101, 6-(7-((2-Ethoxy-1-(5-methylpyridin-2-yl)ethyl)amino)thianthren-1-yl)-4-morpholino pyridin-2(1H)-one] | 100 to 500 nM
10 | COc1ccnc(C(C)Nc2ccc3c(c2)Cc2cccc(-c4cc(N5CCOCC5)cc(=O)[nH]4)c2O3)n1 (centres unmarked) [Example 2-14-56, 6-(7-((1-(4-Methoxypyrimidin-2-yl)ethyl)amino)-9H-xanthen-4-yl)-4-morpholino pyridin-2(1H)-one] | 100 to 500 nM
11 | CNc1ccc2c(c1)Cc1cccc(-c3cc(N4CCOCC4)cc(=O)[nH]3)c1S2 [Example 3-10, 6-(7-(methylamino)-9H-thioxanthen-4-yl)-4-morpholinopyridin-2(1H)-one] | 500 to 2000 nM
12 | CNCCC(Nc1ccc2c(c1)Sc1cccc(-c3cc(N4CCOCC4)cc(=O)[nH]3)c1S2)c1cccc(C)n1 (centres unmarked) [Example 1-20-12, 6-(7-((3-(Methylamino)-1 (6-methyl pyridin-2-yl)propyl)amino)thianthren-1-yl)-4-morpholino pyridin-2 (1H)-one] | 100 to 500 nM
13 | O=c1cc(N2CCOCC2)cc(-c2cccc3c2Oc2ccc(NC4CCN(Cc5ncccn5)CC4)cc2C3)[nH]1 [Example 2-28-3, 4-Morpholino-6-(7-((1-(pyrimidin-2-ylmethyl)piperidin-4-yl)amino)-9H-xanthen-4-yl)pyridin-2 (1H)-one] | 500 to 2000 nM
14 | CC(Nc1ccc2c(c1)Sc1cccc(-c3cc(N4CCOCC4)cc(=O)[nH]3)c1S2)c1cccc(CN(C)C)n1 (centres unmarked) [Example 1-12-111, 6-(7-((1-(6-((Dimethylamino)methyl)pyridin-2-yl)ethyl)amino)thianthren-1-yl)-4-morpholino pyridin-2(1H)-one] | 100 to 500 nM
